Laboratory results reported in patent US20110040088A1, “FUSED HETEROCYCLIC COMPOUNDS” (priority 2003, published 2011).
Where two headings read alike, the source gives them in different places.

Legend:
[1] = biological target: T1, rat 5-HT7a receptor (Rattus norvegicus, UniProt P32305); assay: 5-HT7 receptor radioligand binding ([3H]5-CT, membranes of transfected HEK-293 cells); conditions: rat 5-HT7a in HEK-293 membranes, 1 nM [3H]5-CT
T1 construct: expressed in transfected cells

[2] = biological target: 5-HT2A receptor (UniProt P28223); assay: 5-HT2A receptor radioligand binding ([3H]ketanserin); conditions: read-out: Ki 5-HT2A, table does not say whether rat cortex or human recombinant (NIH3T3) receptor;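 also: competitive displacement binding on membranes, either from rat cerebral cortex or from NIH3T3 cells stably expressing human 5-HT2A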
Description: The affinity of the compounds for the rat 5-HT2A receptor was evaluated by competitive radioligand binding assay using [^3H]ketanserine as the radioligand. The assay was performed on membranes from rat cortex as previously described (Schotte, A. et al., Psychopharmacology (1996) 124: 57-73). Briefly, brain tissue (rat cortex) was homogenized in 20 volumes per wet weight tissue of Tris-HCl buffer (50 mM, pH 7.4). The total membrane fraction was collected by centrifugation and washed by subsequent centrifugation runs (25 min at 25,000 g at 4° C.). Membranes were re-suspended in Tris-HCl buffer (50 mM, pH 7.4) containing 1 nM [^3H]ketanserin. Non-specific binding was estimated in the presence of 10 μM risperidone.

[3] = biological target: T2, human recombinant 5-HT2C receptor (Homo sapiens, UniProt P28335); assay: 5-HT2C receptor radioligand binding ([3H]mesulergine, CHO membranes);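 also: competitive displacement of the tritiated ligand, using membranes from CHO cells stably transfected with the human receptor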
T2 sequence (P28335 33-458): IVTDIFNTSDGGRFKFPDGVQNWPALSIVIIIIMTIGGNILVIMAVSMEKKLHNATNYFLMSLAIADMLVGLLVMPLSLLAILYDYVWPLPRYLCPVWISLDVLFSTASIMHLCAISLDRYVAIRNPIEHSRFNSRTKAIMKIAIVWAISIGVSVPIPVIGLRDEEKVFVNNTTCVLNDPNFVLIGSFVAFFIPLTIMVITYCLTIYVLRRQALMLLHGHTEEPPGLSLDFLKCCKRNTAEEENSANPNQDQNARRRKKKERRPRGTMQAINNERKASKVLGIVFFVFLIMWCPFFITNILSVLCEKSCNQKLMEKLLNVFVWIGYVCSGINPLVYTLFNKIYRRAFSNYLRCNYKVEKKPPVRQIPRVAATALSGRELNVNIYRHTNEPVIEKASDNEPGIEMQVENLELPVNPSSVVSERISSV
Description: (§1) Affinity for 5HT2 Receptor Binding Sites
(§2) Receptor binding was performed using the human recombinant 5-HT2A (GB: X57830), 5-HT2B (GB: Z36748) and 5-HT2c (GB: M81778) receptors. The affinity of the compounds for the 3 different human 5-HT2 receptor subtypes was evaluated by competitive radioligand binding assays using [^3H]ketanserin (h5-HT2A) or [^3H]mesulergine (h5-HT2B and h5-HT2c). The assays were performed on membranes prepared from NIH3T3 stably transfected with h5-HT2A or CHO stably transfected with h5-HT2B and h5-HT2C.

[4] = biological target: human recombinant 5-HT2B receptor (Homo sapiens, UniProt P41595); assay: 5-HT2B receptor radioligand binding ([3H]mesulergine, CHO membranes);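 also: competitive displacement binding on membranes of CHO cells stably expressing the receptor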
human recombinant 5-HT2B receptor, sequence (P41595 whole entry): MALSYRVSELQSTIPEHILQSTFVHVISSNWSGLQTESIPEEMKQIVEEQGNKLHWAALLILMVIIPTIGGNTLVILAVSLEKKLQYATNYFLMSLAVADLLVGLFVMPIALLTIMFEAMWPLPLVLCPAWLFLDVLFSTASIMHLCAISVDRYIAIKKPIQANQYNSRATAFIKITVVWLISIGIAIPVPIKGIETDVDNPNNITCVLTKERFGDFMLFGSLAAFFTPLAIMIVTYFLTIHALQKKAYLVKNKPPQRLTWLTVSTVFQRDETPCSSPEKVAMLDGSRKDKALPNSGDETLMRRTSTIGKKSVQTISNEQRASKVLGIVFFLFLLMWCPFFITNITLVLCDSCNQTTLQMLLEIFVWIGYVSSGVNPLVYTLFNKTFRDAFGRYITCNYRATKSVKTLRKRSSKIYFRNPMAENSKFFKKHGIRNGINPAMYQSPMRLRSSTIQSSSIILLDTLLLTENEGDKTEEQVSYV
Description: as §1, §2

[5] = read-out: Ki 5-HT2C, h5-HT2C in CHO membranes, [3H]mesulergine
[6] = read-out: Ki 5-HT2B, h5-HT2B in CHO membranes, [3H]mesulergine

T1 sequence (P32305 whole entry): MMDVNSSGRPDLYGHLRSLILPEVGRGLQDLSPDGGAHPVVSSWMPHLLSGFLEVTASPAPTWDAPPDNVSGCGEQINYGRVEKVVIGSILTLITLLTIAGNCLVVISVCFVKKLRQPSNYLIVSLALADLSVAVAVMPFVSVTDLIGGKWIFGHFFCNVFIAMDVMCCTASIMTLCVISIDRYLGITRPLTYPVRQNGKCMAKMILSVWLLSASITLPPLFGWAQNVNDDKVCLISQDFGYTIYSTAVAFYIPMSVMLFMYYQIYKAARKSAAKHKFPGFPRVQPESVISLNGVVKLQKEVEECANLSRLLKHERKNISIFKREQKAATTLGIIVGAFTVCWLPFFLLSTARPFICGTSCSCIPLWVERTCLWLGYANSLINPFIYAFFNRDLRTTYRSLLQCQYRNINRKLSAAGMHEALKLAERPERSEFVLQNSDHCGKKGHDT

| Ki [1] [nM] | Ki [2] [nM] | Ki [3] [nM] | Ki [4] [nM] | Ki [3, 5] [nM] | SMILES | Ki [4, 6] [nM] |
| --- | --- | --- | --- | --- | --- | --- |
| 7 | 2 | 20 | 0.75 | – | CCc1ccc(-c2c3c(nn2C(C)C)CCNCC3)cc1 [Example 210, 3-(4-Ethyl-phenyl)-2-isopropyl-2,4,5,6,7,8-hexahydro-1,2,6-triaza-azulene] | – |
| 8.5 | 5 | – | 0.5 | 18 | CC(C)n1nc2c(c1-c1ccc(Cl)cc1)CCNCC2 [Example 211, 3-(4-Chloro-phenyl)-2-isopropyl-2,4,5,6,7,8-hexahydro-1,2,6-triaza-azulene] | – |
| 12 | 7.5 | – | 4.7 | 80 | CC(C)n1nc2c(c1-c1ccc(C(F)(F)F)cc1)CCNCC2 [Example 213, 2-Isopropyl-3-(4-trifluoromethyl-phenyl)-2,4,5,6,7,8-hexahydro-1,2,6-triaza-azulene] | – |
| 70 | 6 | 17 | 20 | – | CC(C)(C)n1nc2c(c1-c1ccc(F)cc1)CCNCC2 [Example 216, 2-tert-Butyl-3-(4-fluoro-phenyl)-2,4,5,6,7,8-hexahydro-1,2,6-triaza-azulene] | – |
| 25 | 1 | 10 | 0.65 | – | Cc1ccc(-c2c3c(nn2C2CCCC2)CCNCC3)cc1 [Example 217, 2-Cyclopentyl-3-p-tolyl-2,4,5,6,7,8-hexahydro-1,2,6-triaza-azulene] | – |
| 55 | 1.3 | 6.8 | 0.55 | – | COc1ccc(-c2c3c(nn2C2CCCC2)CCNCC3)cc1 [Example 220, 2-Cyclopentyl-3-(4-methoxy-phenyl)-2,4,5,6,7,8-hexahydro-1,2,6-triaza-azulene] | – |
| 40 | 1 | 13 | 0.5 | – | Clc1ccc(-c2c3c(nn2C2CCC2)CCNCC3)cc1 [Example 238, 3-(4-Chloro-phenyl)-2-cyclobutyl-2,4,5,6,7,8-hexahydro-1,2,6-triaza-azulene] | – |
| 21 | 8 | – | 1.3 | 45 | COc1ccc(-c2c3c(nn2C(C)C)CCNCC3)cc1 [Example 242, 2-Isopropyl-3-(4-methoxy-phenyl)-2,4,5,6,7,8-hexahydro-1,2,6-triaza-azulene] | – |
| 150 | 0.9 | 40 | 3 | – | Fc1ccc(-c2c3c(nn2C2CCC2)CCNCC3)cc1 [Example 277, 2-Cyclobutyl-3-(4-fluoro-phenyl)-2,4,5,6,7,8-hexahydro-1,2,6-triaza-azulene] | – |
| 35 | 0.1 | 10 | 0.2 | – | Cc1ccc(-c2c3c(nn2C2CCC2)CCNCC3)cc1 [Example 278, 2-Cyclobutyl-3-p-tolyl-2,4,5,6,7,8-hexahydro-1,2,6-triaza-azulene] | – |
| 80 | 0.8 | 45 | 1 | – | FC(F)(F)c1ccc(-c2c3c(nn2C2CCC2)CCNCC3)cc1 [Example 279, 2-Cyclobutyl-3-(4-trifluoromethyl-phenyl)-2,4,5,6,7,8-hexahydro-1,2,6-triaza-azulene] | – |
| 100 | 6 | – | – | 200 | Fc1ccc(-c2c3c(nn2C2CC2)CCNCC3)cc1 [Example 282, 2-Cyclopropyl-3-(4-fluoro-phenyl)-2,4,5,6,7,8-hexahydro-1,2,6-triaza-azulene] | 20 |
| 10 | 1 | 60 | 2 | – | Cc1ccc(-c2c3c(nn2C2CC2)CCNCC3)cc1 [Example 284, 2-Cyclopropyl-3-p-tolyl-2,4,5,6,7,8-hexahydro-1,2,6-triaza-azulene] | – |
| 50 | 5 | 60 | 6.5 | – | CCC(C)n1nc2c(c1-c1ccccc1)CCNCC2 (centres unmarked) [Example 298, 2-sec-Butyl-3-phenyl-2,4,5,6,7,8-hexahydro-1,2,6-triaza-azulene] | – |
| 35 | 1.7 | 26 | 9 | – | CCC(C)n1nc2c(c1-c1ccc(F)cc1)CCNCC2 (centres unmarked) [Example 299, 2-sec-Butyl-3-(4-fluoro-phenyl)-2,4,5,6,7,8-hexahydro-1,2,6-triaza-azulene] | – |

Continued, molecule first:

| SMILES | Ki [1] [nM] | Ki [2] [nM] | Ki [3] [nM] | Ki [4] [nM] | Ki [3, 5] [nM] | Ki [4, 6] [nM] |
| --- | --- | --- | --- | --- | --- | --- |
| CC(C)n1nc2c(c1-c1ccc(C#N)cc1)CCNCC2 [Example 212, 4-(2-Isopropyl-2,4,5,6,7,8-hexahydro-1,2,6-triaza-azulen-3-yl)-benzonitrile] | 93 | 25 | 425 | – | – | 12 |
| FC(F)(F)c1ccc(-c2c3c(nn2C2CCCC2)CCNCC3)cc1 [Example 218, 2-Cyclopentyl-3-(4-trifluoromethyl-phenyl)-2,4,5,6,7,8-hexahydro-1,2,6-triaza-azulene] | 75 | 1.7 | 15 | 1.8 | – | – |
| c1cc(-c2c3c(nn2C2CCCC2)CCNCC3)co1 [Example 232, 2-Cyclopentyl-3-furan-3-yl-2,4,5,6,7,8-hexahydro-1,2,6-triaza-azulene] | 20 | 25 | 66 | 0.5 | – | – |
| c1csc(-c2c3c(nn2C2CCCC2)CCNCC3)c1 [Example 233, 2-Cyclopentyl-3-thiophen-2-yl-2,4,5,6,7,8-hexahydro-1,2,6-triaza-azulene] | 15 | 4 | 16 | 25 | – | – |
| Fc1ccc(-c2c3c(nn2C2CCCC2)CCNCC3)cc1F [Example 236, 2-Cyclopentyl-3-(3,4-difluoro-phenyl)-2,4,5,6,7,8-hexahydro-1,2,6-triaza-azulene] | 950 | 7 | 32 | 4.5 | – | – |
| Fc1cc(-c2c3c(nn2C2CCCC2)CCNCC3)ccc1Cl [Example 241, 3-(4-Chloro-3-fluoro-phenyl)-2-cyclopentyl-2,4,5,6,7,8-hexahydro-1,2,6-triaza-azulene] | 310 | 9 | 38 | 9.5 | – | – |
| c1ccc(-c2c3c(nn2C2CCC2)CCNCC3)cc1 [Example 276, 2-Cyclobutyl-3-phenyl-2,4,5,6,7,8-hexahydro-1,2,6-triaza-azulene] | 90 | 3 | – | 2.5 | 90 | – |
| N#Cc1ccc(-c2c3c(nn2C2CCC2)CCNCC3)cc1 [Example 280, 4-(2-Cyclobutyl-2,4,5,6,7,8-hexahydro-1,2,6-triaza-azulen-3-yl)-benzonitrile] | 3300 | 1.5 | 120 | 6 | – | – |
| CCC(CC)n1nc2c(c1-c1ccc(F)c(C)c1)CCNCC2 [Example 283, 2-(1-Ethyl-propyl)-3-(4-fluoro-3-methyl-phenyl)-2,4,5,6,7,8-hexahydro-1,2,6-triaza-azulene] | 5000 | 10 | 150 | 60 | – | – |
| c1cc(-c2c3c(nn2C2CC2)CCNCC3)cs1 [Example 285, 2-Cyclopropyl-3-thiophen-3-yl-2,4,5,6,7,8-hexahydro-1,2,6-triaza-azulene] | 29 | 60 | 500 | 6 | – | – |
| N#Cc1ccc(-c2c3c(nn2C2CC2)CCNCC3)cc1 [Example 286, 4-(2-Cyclopropyl-2,4,5,6,7,8-hexahydro-1,2,6-triaza-azulen-3-yl)-benzonitrile] | 335 | 50 | 5000 | 80 | – | – |
